Measurements: patent US20020042079A1, “METHODS AND AGENTS FOR MEASURING AND CONTROLLING MULTIDRUG RESISTANCE” (priority 1994, published 2002)
Entries after “also recorded” stand apart in the source; their conditions may differ.

Experiments:
[1] = tested on: MCF-7adr cells; experiment: Intravesicular pH with SNAFL-calcein; format: cell-based, human; conditions: monensin 10 μg/ml for 30 minutes
From the text: FIG. 6a-6c show Measurements of Intravesicular pH utilizing SNAFL-calcein. […] In contrast, significant pH gradients, including an acidic pericentriolar labeling is observed in MCF7adr cells (FIG. 6b). The intravesicular pH in drug-resistant MCF-7adr cells (white bars) is […] than the vesicular pH of the drug-sensitive parental MCF-7 (black bars) (FIG. 6c). This acidic pH difference is reduced by treatment of MCF-7adr cells with monensin (dark grey). Methods: The acetoxymethylester derivative of SNAFL-calcein (15 μg/ml) (a radiometric fluorescent probe for pH) was added to both MCF-7 and MCF-7adr cells. The ester linked fluorescent probe enters the cell passively where the esters are hydrolyzed by esterases located in the cytoplasm and intracellular vesicles. […] The cells were incubated at 37° C. for 45 minutes and then examined in with the Insight confocal fluorescence. […] To obtain a quantitative relationship between emission ratios and pH, each SNAFL-calcein stained cell line was exposed to a buffer at a known pH containing nigericin/high K^+ (18 μM/150 mM KCl). […] These values were then incorporated into a pH imaging routine that provides a direct read-out of pH values for individual intracellular compartments that are queried on the computer screen. […] (c) To prepare histograms of vesicular pH, 5 vesicles within a confocal section were analyzed/cell (20 cells per cell type). […]

[2] = tested on: isolated microsomes of MCF-7/ADR cells; experiment: In vitro acidification of total microsomal preparation (acridine orange quenching)
Description: Acidification of Cellular Microsomes: The acidification of cellular microsomes was assayed spectrophotometrically. Two different approaches were used for assaying acidification: Acidification of the total microsomal preparation using quenching of acridine orange and acidification of the recycling endosomes by monitoring the fluorescence from a microsomal preparation from cells that had previously endocytosed FITC-transferrin.
The homogenate was centrifuged twice for 10 minutes at 3000 g to remove unbroken cells and nuclei. The supernatant was layered over 20 ml of 0.5 M sucrose (20 mM HERES (pH 7.4), 1 mM DTT, 1 mM EDTA, 1×protease inhibitor mix) and 1 ml of 2 M sucrose and centrifuged for one hour at 100,000 g (Beckman Ti60 Rotor). Microsomes are collected at the 0.5 M and 2 M interface.
Acidic vesicles accumulate acridine orange to high concentrations resulting in the self quenching of the dye. This accumulation causes depletion of the acridine orange from the extra-vesicular space, and a decrease of the overall fluorescence of the sample. […] The sample was allowed to equilibrate by stirring for 30 minutes at 25° C. After 5 minutes of recording to establish baseline, 1 mM Tris-ATP was added to begin acidification (100 mM stock, titrated to pH 7.4 with 1 M Tris-base before use).

[3] = tested on: MCF-7/ADR cells; experiment: Transport of BODIPY-sphingomyelin from TGN to cell surface; format: cell-based, human; conditions: Tamoxifen 10 μM
Description: When accumulated at high concentrations, BODIPY-sphingomyelin undergoes a green to red shift in fluorescence emission.
Cells were fixed by washing two times in cold fixing buffer (1% paraformaldehyde, 0.1 M sodium cacodylate, 0.1 M sucrose, pH 7.2) followed by a 15 minute incubation in fixing buffer on ice, and then washing two times with cold fixing buffer without paraformaldehyde. […] Biophys.

[4] = tested on: fresh liver and kidney tissue from mice; experiment: In vitro acidification of organelles from fresh tissue; format: biochemical
From the text: The in vitro acidification assay used purified microsomes that had been resuspended in a salt buffer without additional cytosolic or nuclear components.

[5] = tested on: MCF-7/ADR cells; experiment: Transport of BODIPY-transferrin from recycling endosomes to cell surface
[6] = tested on: CHO cells; experiment: Acridine orange labeling of acidic compartments; format: cell-based, Chinese Hamster; conditions: 10 μM tamoxifen, thirty minutes
Description: Labeling of Cells with Acridine Orange: To examine intracellular acidic compartments, acridine orange (6 μM in medium from a 10 mM stock in water) was added directly to cells in the Lab-Tek chambers and the cells were incubated for 15 minutes. Cells in the presence of acridine orange were then examined utilizing an excitation at 488 nm and dual emission confocal images were simultaneously recorded using both a 530-30 band pass barrier filter (green fluorescence) and a 605 nm long pass barrier filter (red fluorescence). Optical sections of the fluorescent samples were recorded at 0.5 micron intervals with a 60×oil immersion objective.
CHO cells are often used for transfection studies with Pgp since endogenous levels of the protein are non-existent, or too low to be measured [Debenham et al., Mol. Cell Biol., 2:881-889 (1982)].

| SMILES | pH of acidic vesicular compartments after treatment [1] | acidification of pre-treated microsomes ([2]; Tamoxifen 8 μM, Bafilomycin A1 10 nM, monensin concentration not given) | rate of dissipation of the pre-existing pH gradient ([2]; added 10 minutes after ATP, Bafilomycin A1 100 nM, compared with tamoxifen) | sphingomyelin fluorescence remaining associated with the cells after two hours [3] | effect on in vitro acidification compared with MCF-7/ADR microsomes [4] | time for intracellular BODIPY-transferrin to decrease to 50% of its steady-state level ([5]; 10 μM tamoxifen) [min] | BODIPY-transferrin remaining with cells after 25 minutes ([5]; Tamoxifen 10 μM) | BODIPY-transferrin remaining with cells after five minutes ([5]; Tamoxifen 10 μM) | time to almost complete dissipation of the pre-existing pH gradient ([2]; 8 μM Tamoxifen added 10 minutes after Tris-ATP) [minutes] | red acridine orange fluorescence after Tamoxifen [6] |
| --- | --- | --- | --- | --- | --- | --- | --- | --- | --- | --- |
| CC[C@@]1([C@@H]2O[C@@H]([C@H]3O[C@@](O)(CO)[C@H](C)C[C@@H]3C)C[C@@H]2C)CC[C@H]([C@]2(C)CC[C@]3(C[C@H](O)[C@@H](C)[C@@H]([C@@H](C)[C@@H](OC)[C@H](C)C(=O)O)O3)O2)O1 [Monensin] | alkalization of acidic vesicular compartments to pH values observed for drug sensitive MCF-7 cells | inhibited acidification | significantly faster than tamoxifen |  |  |  |  |  |  |  |
| CC/C(=C(\c1ccccc1)c1ccc(OCCN(C)C)cc1)c1ccccc1 [Tamoxifen] |  |  |  | more than 70% | similar | 30 | More than 60% | more than 90% | ≤ 5 | substantially reduced the red acridine orange fluorescence; also recorded: loss of red-orange fluorescence from the cytoplasm of the CHO cells |
